For test [1], the system named is NCCIT cells. The test is described as follows: OCT4 immunofluorescence of RA-differentiated cells with ganciclovir.
The test system of test [2] is RA-differentiated NCCIT(pSuicide) cells. Briefly: Tumor development from RA-differentiated NCCIT(pSuicide) cells with or without in vitro ganciclovir selection. In kind it is in vivo, SCID mice. As to the method: (§1) One aliquot of cells was maintained in differentiation medium containing 2 μmol/L ganciclovir for 7 days (for in vitro immuno-analysis) or 14 days (for in vivo tumor formation). As a negative control, counterpart cells were grown in differentiation medium containing 0.1% DMSO in which ganciclovir is dissolved.
Trypsinized cells washed in PBS were resuspended in ice-cold PBS containing 30% BD Matrigel (BD Biosciences), drawn into an ice-cold 1-mL syringe, and kept on ice for subcutaneous injection into 8-˜12-week-old female immunodeficient SCID mice (Charles River Laboratories, Wilmington, Mass.) as previously described (Prokhorova et al., 2009, Stem Cells Dev 2009; 18:47-54). For undifferentiated NCCIT and NCCIT (pSuicide) cells, 1.5×10^6 cells in 100 μl volume were injected for each mouse. For differentiated NCCIT (pSuicide) cells, 3×10^6 cells were injected.
(§2) When tumors reached about 8 mm in size, ganciclovir (50 mg/kg body weight) was delivered intraperitoneally daily for 2-3 weeks. Each tumor was regarded as a prolate spheroid and the greatest longitudinal diameter (L) and greatest transverse diameter (B) were monitored with a caliper every 2 days by the same person. The two dimensions were to lie perpendicular to each other in a plane tangential to the body wall. Tumor size was estimated from the formula V=½(L×B^2) as previously described (Euhus et al., 1986, J Surg Oncol 31:229-34). The size of tumors formed by NCCIT and NCCIT (pSuicide) cells was compared by analysis of variation (ANOVA), setting as 1 the volume on the day ganciclovir was first delivered.

The test system of test [3] is NCCIT (pSuicide) cells. The test is described as follows: Western blotting of OCT4A after RA-induced differentiation and ganciclovir. In kind it is cell-based, human. The conditions noted are these: RA-induced NCCIT (pSuicide) cells treated with ganciclovir. As to the method:
as §1
(§3) Cells were lysed in RIPA buffer with protease inhibitors (0.5 mmol/L PMSF and 1×Complete Protease Inhibitor Cocktail from Roche) for SDS-PAGE and Western blotting analyses. Monoclonal anti-β-actin antibody was from Sigma and used at 1:5000 (St Louis, Mo.). Rabbit anti-HSV thymidine kinase antiserum was obtained from Dr. William Summers of Yale University (1:5000); anti-OCT4A antibody was from Santa Cruz Biotechnology (Santa Cruz, Calif.) and used at 1:1000. Horseradish peroxidase (HRP)-conjugated secondary antibodies (1:1000) were purchased from Pierce (Rockford, Ill.). Chemiluminescent reagents from Pierce were used to visualize the protein signals on an LAS-3000 imaging system (Fujifilm). The Integrated Density function (Image J software) was used to quantify the expression of individual proteins after normalized by β-actin.

For test [4], the system named is NCCIT cells. The description is as above. In kind it is cell-based, human. The conditions noted are these: ganciclovir added to RA-induced NCCIT cells. As for the experimental part: as §1, §3
In test [5] the test system is NCCIT (pSuicide) cells. The test is described as follows: Cell survival under ganciclovir treatment. In kind it is cell-based, human. As to the method:
(§4) NCCIT and HeLa cells with and without pSuicide episomal DNA were treated with and without 2 μmol/L ganciclovir. Cell numbers and morphology were compared 7 days after treatment.

In test [6] the test system is NCCIT (pSuicide) cells. Briefly: Flow cytometry of OCT4-expressing cells after RA and ganciclovir. In kind it is cell-based, human. As for the experimental part: as §1
(§5) Cells were trypsinized and about 5×10^5 cells were fixed in 2% paraformaldehyde for 10 min at room temperature. Cells were pelleted and permeabilized by resuspension with vigorous vortexing in 500 μl iced-cold methanol and incubated at 4° C. for at least 10 min. After 3 washes with staining buffer (PBS with 1% BSA), the cells were resuspended in 100 μl OCT4 antibody (Santa Cruz Biotechnology), diluted to 1:100 with staining buffer, and incubated for 30 min at 4° C. The cells were washed 3 times with staining buffer and incubated in 1:300 diluted Cy5-conjugated goat anti-mouse Fab for 30 min at 4° C. The cells were assessed for OCT4 expression using a BD FACSCalibur cytometer (BD Biosciences) with CellQuest software.
(In flow cytometry, cells or beads pass a laser one at a time.)

In test [7] the test system is NCCIT cells. The test is described as above. In kind it is cell-based, human. As for the experimental part:
as §1, §5

Test [8] deals with NCCIT (pSuicide) cells. The test is described as follows: OCT4 immunofluorescence of RA-differentiated cells with ganciclovir. In kind it is cell-based, human. As for the experimental part:
as §1
Briefly, differentiated NCCIT cells growing on chamber slides were fixed in 4% PFA for 15 min at room temperature and permeabilized in 0.2% Triton X-100/PBS for 10 min. After blocking with 10% horse serum, cells were incubated with 3%0/horse serum diluted (1:50) OCT4 antibody (Santa Cruz Biotechnology) for 1 h at room temperature, followed by three washes in PBS-T (0.1% Tween 20 in phosphate-buffered saline). […] Images were captured under a fluorescent microscope.

The test system of the next test is tumors from NCCIT cells. The test is described as follows: In vivo ganciclovir treatment of tumors. The arrangement: species or system SCID mice. As for the experimental part: as §2, with “Trypsinized cells washed in PBS were resuspended in ice-cold PBS containing 30% BD Matrigel (BD Biosciences), drawn into an ice-cold 1-mL syringe, and kept on ice for subcutaneous injection into 8-˜12-week-old female immunodeficient SCID mice (Charles River Laboratories, Wilmington, Mass.) as previously described (Prokhorova et al., 2009, Stem Cells Dev 2009; 18:47-54). For undifferentiated NCCIT and NCCIT (pSuicide) cells, 1.5×10^6 cells in 100 μl volume were injected for each mouse. For differentiated NCCIT (pSuicide) cells, 3×10^6 cells were injected. When” for “When”

The test system of test [9] is tumors from NCCIT (pSuicide) cells. Briefly: In vivo ganciclovir treatment of tumors. On the set-up: species or system SCID mice. As to the method:
as §2, with “Trypsinized cells washed in PBS were resuspended in ice-cold PBS containing 30% BD Matrigel (BD Biosciences), drawn into an ice-cold 1-mL syringe, and kept on ice for subcutaneous injection into 8-˜12-week-old female immunodeficient SCID mice (Charles River Laboratories, Wilmington, Mass.) as previously described (Prokhorova et al., 2009, Stem Cells Dev 2009; 18:47-54). For undifferentiated NCCIT and NCCIT (pSuicide) cells, 1.5×10^6 cells in 100 μl volume were injected for each mouse. For differentiated NCCIT (pSuicide) cells, 3×10^6 cells were injected. When” for “When”

For a further test, the system named is HeLa (pSuicide) cells. The test is described as follows: Cell survival under ganciclovir treatment. In kind it is cell-based. As to the method:
as §4

Setting [10] is: 2 μmol/L ganciclovir for 7 days.
Where [11] appears, read: 3 × 10^6 cells/mouse, SCID mice.

The record followed here is patent US9879278B2, “Non-viral episomal suicide construct” (WAKE FOREST UNIVERSITY HEALTH SCIENCES, priority 2012, dated 2018).

Where “and” joins values, the source holds several entries; their conditions need not be identical. Equal values may be shown once. Entries after “also recorded” stand apart in the source; their conditions may differ.

On to `Nc1nc(O)c2ncn(COC(CO)CO)c2n1` [ganciclovir], for which the “elimination of OCT4A-positive cells” value is listed as “did not eliminate” in the test with NCCIT cells [1] (2 μmol/L ganciclovir for 7 days after 10 days RA) and “eliminated” in the test on NCCIT (pSuicide) cells [8] (2 μmol/L ganciclovir for 7 days after 10 days RA, NCCIT (pSuicide) cells). Moreover, the “mice that developed tumors of mice injected with ganciclovir-treated cells” value in test [2] (cells treated with ganciclovir for 14 days before injection, 3 months after injection) was 1 of 12 and 1/14. Moreover, the values for the OCT4A expression result in the test on NCCIT (pSuicide) cells [3] and in the test on NCCIT cells [4] were “undetectable” and “did not reduce”, respectively. For the same compound, the cell killing entry with NCCIT (pSuicide) cells [5] (setting [10]) is “killed”; with HeLa (pSuicide) cells (setting [10]), “not”. Moreover, the proliferation result is “affected” with NCCIT (pSuicide) cells [5] (ganciclovir treatment); “not affected and not” in the test with HeLa (pSuicide) cells (ganciclovir treatment). In addition, the “percentage of OCT4A-positive cells” value in the test on NCCIT (pSuicide) cells [6] (RA-treated NCCIT (pSuicide) cells after ganciclovir treatment) was 2.27%±0.12%; in the test with NCCIT cells [7] (RA-treated NCCIT cells after ganciclovir treatment) it was 30.18%±2.46%. Besides, in the test on NCCIT (pSuicide) cells [8] (1670 immunostained ganciclovir-treated NCCIT (pSuicide) cells examined), the “cells with nuclear staining of OCT4A antibody” value was “none”. In addition, the “Tumors responded to ganciclovir” value is reported as 0/7 in the test on tumors from NCCIT cells (NCCIT-derived tumors, ganciclovir 50 mg/kg intraperitoneally daily) and 4/4 in test [9] (NCCIT(pSuicide)-derived tumors, ganciclovir 50 mg/kg intraperitoneally daily). The tumor growth result was “continued to grow and not” in the test on tumors from NCCIT cells (tumors from NCCIT cells, ganciclovir 50 mg/kg i.p. daily for two weeks); “stopped growing; also recorded: inhibited growth” in [9] (tumors from NCCIT (pSuicide) cells, ganciclovir 50 mg/kg i.p. daily for two weeks); “inhibited” in test [9] (two mice with tumors from differentiated NCCIT (pSuicide) cells treated with ganciclovir).
On to `CC1=C(/C=C/C(C)=C/C=C/C(C)=C/C(=O)O)C(C)(C)CCC1` [RA, retinoic acid], for which the “cells induced to differentiate (OCT4A-negative)” value is recorded as “about 50%” in the test on NCCIT cells [1] (20 μmol/L retinoic acid) and “about 50%” in the test on NCCIT (pSuicide) cells [8] (20 μmol/L retinoic acid, NCCIT (pSuicide) cells). Also, the “No. mice with tumor 0-3 Months postinjection” value in test [2] (setting [11]) was found to be 6. The “No. mice with tumor 3-5 Months postinjection” value in test [2] (setting [11]) came to 1. Further, the “No. mice with tumor Total” value in test [2] (setting [11]) turned out to be 7. Also, the “percentage of OCT4A-positive cells” value in the test with NCCIT (pSuicide) cells [6] (RA-treated NCCIT (pSuicide) cells before ganciclovir treatment) is recorded as 59.10%±0.5%. The OCT4A-positive cells is reported as 40-60% with NCCIT (pSuicide) cells [6] (after RA induction, NCCIT (pSuicide) cells) and 40-60% in the test on NCCIT cells [7] (after RA induction, NCCIT cells).
